Results taken from the NIST ThermoML archive (doi:10.1021/je100638g).
Numbers after ± are expanded uncertainties.

Key:
[1] = xn = mol fraction of the nth substance listed; conditions: 100 kPa, Liquid
[2] = for mass density / viscosity: 100 kPa, Liquid; for Normal melting temperature: Crystal, DTA
[3] = Molar enthalpy of transition or fusion; conditions: Crystal; DSC

## CCCc1ccc[n+](C)c1.F[P-](F)(F)(F)(F)F [1-methyl-3-propylpyridinium hexafluorophosphate] + O
[1]; 303.15 K, x2 = 0.249
  mass density: 1362.5 ± 3.5 kg/m3
  viscosity: 73.39 ± 4 mPa·s
[1]; 308.15 K, x2 = 0.249
  mass density: 1358.3 ± 3.4 kg/m3
  viscosity: 57.55 ± 1.3 mPa·s
[1]; 313.15 K, x2 = 0.249
  mass density: 1354 ± 3.4 kg/m3
  viscosity: 45.98 ± 1.6 mPa·s
[1]; 318.15 K, x2 = 0.249
  mass density: 1349.8 ± 3.4 kg/m3
  viscosity: 37.36 ± 1.3 mPa·s
[1]; 323.15 K, x2 = 0.249
  mass density: 1345.6 ± 3.3 kg/m3
  viscosity: 30.81 ± 1.1 mPa·s
[1]; 328.15 K, x2 = 0.249
  mass density: 1341.4 ± 3.3 kg/m3
  viscosity: 25.75 ± 0.89 mPa·s
[1]; 333.15 K, x2 = 0.249
  mass density: 1337.2 ± 3.3 kg/m3
  viscosity: 21.76 ± 0.76 mPa·s
[1]; 338.15 K, x2 = 0.249
  mass density: 1333.1 ± 3.3 kg/m3
  viscosity: 18.6 ± 0.65 mPa·s
[1]; 343.15 K, x2 = 0.249
  mass density: 1328.9 ± 3.2 kg/m3
  viscosity: 16.04 ± 0.57 mPa·s
[1]; 348.15 K, x2 = 0.249
  mass density: 1324.8 ± 3.2 kg/m3
  viscosity: 13.98 ± 0.5 mPa·s
[1]; 353.15 K, x2 = 0.249
  mass density: 1320.7 ± 3.2 kg/m3
  viscosity: 12.28 ± 0.45 mPa·s
[1]; 358.15 K, x2 = 0.249
  mass density: 1316.6 ± 3.2 kg/m3
  viscosity: 10.86 ± 0.4 mPa·s
[1]; 363.15 K, x2 = 0.249
  mass density: 1312.5 ± 3.1 kg/m3
  viscosity: 9.677 ± 0.37 mPa·s

## CCCn1cc[n+](C)c1.F[P-](F)(F)(F)(F)F [1-methyl-3-propylimidazolium hexafluorophosphate]
[2]; 318.15 K
  mass density: 1397.5 ± 3.4 kg/m3
  viscosity: 85.01 ± 6.3 mPa·s
[2]; 323.15 K
  mass density: 1393.2 ± 3.3 kg/m3
  viscosity: 68.18 ± 3 mPa·s
[2]; 328.15 K
  mass density: 1389 ± 3.3 kg/m3
  viscosity: 55.46 ± 0.98 mPa·s
[2]; 333.15 K
  mass density: 1384.7 ± 3.3 kg/m3
  viscosity: 45.7 ± 1.5 mPa·s
[2]; 338.15 K
  mass density: 1380.5 ± 3.3 kg/m3
  viscosity: 38.09 ± 1.3 mPa·s
[2]; 343.15 K
  mass density: 1376.3 ± 3.2 kg/m3
  viscosity: 32.1 ± 1.1 mPa·s
[2]; 348.15 K
  mass density: 1372.1 ± 3.2 kg/m3
  viscosity: 27.32 ± 0.93 mPa·s
[2]; 353.15 K
  mass density: 1367.9 ± 3.2 kg/m3
  viscosity: 23.47 ± 0.81 mPa·s
[2]; 358.15 K
  mass density: 1363.8 ± 3.1 kg/m3
  viscosity: 20.34 ± 0.71 mPa·s
[2]; 363.15 K
  mass density: 1359.6 ± 3.1 kg/m3
  viscosity: 17.77 ± 0.63 mPa·s
[2]
  Normal melting temperature: 38.5 ± 0.5 °C
[3]
  Molar enthalpy of transition or fusion: 3.99 ± 0.12 kcal/mol

## CCCc1ccc[n+](C)c1.F[P-](F)(F)(F)(F)F [1-methyl-3-propylpyridinium hexafluorophosphate]
[2]; 318.15 K
  mass density: 1365.4 ± 3.2 kg/m3
  viscosity: 132.87 ± 18 mPa·s
[2]; 323.15 K
  mass density: 1361.3 ± 3.1 kg/m3
  viscosity: 102.17 ± 10 mPa·s
[2]; 328.15 K
  mass density: 1357.3 ± 3.1 kg/m3
  viscosity: 79.97 ± 5.3 mPa·s
[2]; 333.15 K
  mass density: 1353.2 ± 3.1 kg/m3
  viscosity: 63.67 ± 2.2 mPa·s
[2]; 338.15 K
  mass density: 1349.2 ± 3 kg/m3
  viscosity: 51.52 ± 0.65 mPa·s
[2]; 343.15 K
  mass density: 1345.2 ± 3 kg/m3
  viscosity: 42.29 ± 1.4 mPa·s
[2]; 348.15 K
  mass density: 1341.2 ± 3 kg/m3
  viscosity: 35.16 ± 1.2 mPa·s
[2]; 353.15 K
  mass density: 1337.2 ± 3 kg/m3
  viscosity: 29.58 ± 1 mPa·s
[2]; 358.15 K
  mass density: 1333.2 ± 2.9 kg/m3
  viscosity: 25.15 ± 0.86 mPa·s
[2]; 363.15 K
  mass density: 1329.2 ± 2.9 kg/m3
  viscosity: 21.59 ± 0.75 mPa·s
[2]
  Normal melting temperature: 38.1 ± 0.5 °C
[3]
  Molar enthalpy of transition or fusion: 3.59 ± 0.12 kcal/mol

## CCCn1cc[n+](C)c1.F[P-](F)(F)(F)(F)F [1-methyl-3-propylimidazolium hexafluorophosphate] + O
[1]; 303.15 K, x2 = 0.306
  mass density: 1389.2 ± 3.3 kg/m3
  viscosity: 39.41 ± 1.3 mPa·s
[1]; 308.15 K, x2 = 0.306
  mass density: 1384.7 ± 3.3 kg/m3
  viscosity: 32.25 ± 1.1 mPa·s
[1]; 313.15 K, x2 = 0.306
  mass density: 1380.2 ± 3.3 kg/m3
  viscosity: 26.84 ± 0.92 mPa·s
[1]; 318.15 K, x2 = 0.306
  mass density: 1375.7 ± 3.2 kg/m3
  viscosity: 22.61 ± 0.78 mPa·s
[1]; 323.15 K, x2 = 0.306
  mass density: 1371.3 ± 3.2 kg/m3
  viscosity: 19.29 ± 0.67 mPa·s
[1]; 328.15 K, x2 = 0.306
  mass density: 1366.9 ± 3.2 kg/m3
  viscosity: 16.58 ± 0.59 mPa·s
[1]; 333.15 K, x2 = 0.306
  mass density: 1362.5 ± 3.2 kg/m3
  viscosity: 14.39 ± 0.52 mPa·s
[1]; 338.15 K, x2 = 0.306
  mass density: 1358.1 ± 3.1 kg/m3
  viscosity: 12.61 ± 0.46 mPa·s
[1]; 343.15 K, x2 = 0.306
  mass density: 1353.8 ± 3.1 kg/m3
  viscosity: 11.13 ± 0.41 mPa·s
[1]; 348.15 K, x2 = 0.306
  mass density: 1349.4 ± 3.1 kg/m3
  viscosity: 9.905 ± 0.37 mPa·s
[1]; 353.15 K, x2 = 0.306
  mass density: 1345.1 ± 3.1 kg/m3
  viscosity: 8.874 ± 0.34 mPa·s
[1]; 358.15 K, x2 = 0.306
  mass density: 1340.8 ± 3 kg/m3
  viscosity: 7.983 ± 0.31 mPa·s
[1]; 363.15 K, x2 = 0.306
  mass density: 1336.5 ± 3 kg/m3
  viscosity: 7.228 ± 0.29 mPa·s
